# Source: US20040152665A1, “Amelioration of decreased weight and growth by n-acylated glucosamines” (priority 2003, published 2004)
# Columns and labels:
# [1] = Experiment 1: weight gain of rats on restricted diet (20 g crushed chow/day) with supplement mixed in chow; type: in vivo, Sprague-Dawley male rats; conditions: for average weights and rates of weight gain and growth: days 4 to 11, 20 g chow/day supplemented with 1.0 g GlcNBu or 0.75 g Glc (equimolar) per day per animal; for average weights and rates of weight gain and growth / average rates of weight gain and growth and body weights: compared to control; for average rates of weight gain and growth and body weights: days 12 to 18, 20 g chow/day supplemented with 1.5 g GlcNBu or 1.148 g Glc (equimolar) per day per animal; for stimulation of weight gain and growth (overall, Experiment 1): oral supplementation of restricted diet, 18 days
# Source text: Twelve Sprague-Dawley male rats of body weights between 85 and 90 g each were placed in metabolic cages with access to food, each in an individual separate feeding compartment, so the animals could consume all their food without loss or spillage. Each morning 20 g of crushed commercial chow, which was less than the average determined amount of crushed chow these animals consume. ad lib, was placed in each individual feeding compartment. This procedure ensured that each animal would completely consume all of the crushed chow placed in each feeding compartment over the 24 hours starting with the said placement of the food. Supplementation of the crushed chow with the compounds to be tested was accomplished by mixing the compound with the chow. All test compounds were fully acceptable by the animals and the feeding compartments were emptied by the animals of the crushed chow and any test compound mixed therein, within 24 hr from the beginning of each feeding period. The animals were allowed free access to drinking water throughout the experimental period, which they consumed ad lib. The animals, obtained from a single commercial shipment, were randomly assigned to three experimental groups with four animals in each group. The experimental groups of animals are designated in FIG. 1 (A & B) as control; N-butyryl-D-glucosamine, shown as formula (II) and abbreviated as GlcNBu; and D-glucose abbreviated as Glc.
# Starting at day 1 and continuing to day 12, inclusive, supplementations of the 20 g of crushed chow per day per animal were as following: Control group—no supplementation; GlcNBu group—supplementation with 1.0 g of GlcNBu per day per animal; Glc—supplementation with 0.75 g of Glc per day per animal, which corresponds to an equimolar amount of this GlcNBu supplementation.
# On day 12 and continuing through day 18, the crushed chow (20 g given per day per animal) was further supplemented as follows: Control group—no supplementation; GlcNBu group—supplementation with 1.5 g of GlcNBu per day per animal; Glc —supplementation with 1.148 g of Glc per day per animal, which corresponds to an equimolar amount of this GlcNBu supplementation. It will be observed from FIG. 1 that there was no difference in the average rates of weight gain and growth or weights of the animals in the Glc and the control experimental groups of animals during the period of 12 to 18 days, inclusive.
# [2] = Acute toxicology studies in rats (feeding); type: in vivo; conditions: for rate of weight gain and growth compared to control animals: fed in significant amounts (glucosamine) or equimolar amounts (glucose)
# Description: Acute toxicology studies were carried out in order to evaluate the toxicity in rats of the aforesaid compounds.
# epiphyseal growth plate = assay: Experiment 5: 35S[SO4] autoradiography of epiphyseal growth plates; type: in vivo, rats; conditions: for mean density value of autoradiograms in the region of the epiphyseal growth plate (area under scan curve; black = 0, white = 255): 20 hours after 20 μCi 35S[SO4] i.p. on day 18 of Experiment 1, 12 autoradiograms per group, control 125.6; for incorporation of radioisotope into sulfated glycosaminoglycans of proteoglycans of the epiphyseal growth plates, compared to control: 20 hours after 35S[SO4] injection
# Description: At the end of Experiment 1, described above, the rats were injected intra-peritonealy with 20 μCi of ^35S[SO4] in 1 ml of saline on day 18 and sacrificed 20 hours after the injection. The femurs were removed and the distal ends of the bones were processed histologically for autoradiography. Histological sections of the bones were used to make autoradiograms on X-ray film and were also processed for routine histology, including Toluidine blue staining for assessment of the proteoglycans in the growth plate. No histological abnormalities were detected in the histology sections obtained from any of the experimental groups of animals. The density of the autoradiograms in the region of the epiphyseal growth plate was evaluated and quantified utilizing a scanning microscope and the appropriate software. The software calculates the density of the autoradiogram by scoring a black region (maximally incorporated radioactivity) as 0 and a white region (no incorporated radioactivity) as 255. The areas under the curves of the scan of the autoradiogram (see FIG. 5) are then computed to give the stated values. The mean values of all of the autoradiograms (12 autoradiograms for each group of animals) were: Control, 125.6; Glc-supplemented, 127.1; GlcNBu—supplemented, 143.2. FIG. 5 illustrates scans of typical autoradiograms for the control, Glc-supplemented and GlcNBu-supplemented groups. Each scan is illustrated by a curve whose bases (at the top right and left of the figure) represent radioisotope incorporation at the periphery of the epiphyseal growth plate, while the trough of the curve (in the central part of the figure) represents radioisotope incorporation in the central part of the epiphyseal growth plate. It can be seen that for each of the experimental groups less radioactivity has been incorporated in the central part of the epiphyseal growth plates (the trough of the curve), compared to the periphery of the epiphyseal growth plate (the bases of the curve). The curves with the deepest, middle and least troughs represent autoradiograms from the epiphyses of animals fed with GlcNBu (dots-dashes), Glc (dots) and controls (solid line), respectively, as described in Experiment 1.
# [3] = Setnikar I et al. Arzneimittelforschung 1986; cited from earlier work
# [4] = Experiment 4: weight gain of rats fed ad libitum and gavaged with various amounts of supplement; type: in vivo, Sprague Dawley male rats; conditions: for effect on weight gain: 2000 mg/kg by gavage
# Description: (§1) For the data illustrated in FIG. 4, thirty Sprague Dawley male rats were adapted for one week so that each of their weights at the onset of treatment was approximately 185 grams. Each treatment group consisted of six animals, each administered one of the following treatments: water, 20 mg/kg GlcNBu, 200 mg/kg GlcNBu, 2000 mg/kg GlcNBu of 2000 mg/kg GlcN. All animals were fed Purina Rat Chow and water ad libitum. […] For nine days, the compounds were administered using the gavage technique; half doses being administered at 08:00 and at 17:00. Final urine samples were collected, histological examinations were performed to identify any overt signs of damage and then samples from each were harvested. Urinanalysis was performed using reagent strips (Multistix 8 SG from Bayer Inc. Healthcare Division, Etobicoke ON). […] No symptoms of neurological damage such as seizures or problems with vision were observed. All animals were well groomed and clean, and their snouts were normal.
# [5] = Experiment 4: toxicity observations (behaviour, histological examination, urinanalysis); type: in vivo; conditions: gavage nine days; GlcN 2000 mg/kg, GlcNBu 20, 200, 2000 mg/kg; data not shown
# Description: as §1
# [6] = Experiment 3: weight gain of rats restricted to 10 g chow/day and gavaged with supplement; type: in vivo, Sprague Dawley male rats; conditions: 300 mg by gavage three times daily, by the eighth day of treatment
# Description: The weights, and behavioral and physical parameters of 20 Sprague Dawley male rats, 5 per treatment group, were monitored over a ten-day period. The control group was given Purina Rat Chow ad libitum. The treatment groups were restricted to 10 g of rat chow per day and were supplemented with one of 300 mg GlcNBu, 300 mg GlcN or water, administered by gavage three times daily (FIG. 3). The animals were then sacrificed by CO2 asphyxiation and their organs checked for signs of damage.
# [7] = Experiment 2: weight gain of rats restricted to 10 g (later 15 g) chow/day, supplement dissolved in water then solid; type: in vivo, Sprague Dawley male rats
# Description: The animals were maintained in metabolic cages for the duration of the study (FIG. 2). Parameters of behavior and physical appearance were observed daily for any indications of toxicological complications. Twelve Sprague Dawley male rats were restricted to 10 g of Purina Rat Chow per day for eight days. Treatment groups were provided with water containing 20 mg/mL GlcN or GlcNBu. Daily volumes of urine produced and water consumed were recorded. The mean water consumption (ml/day) for the three groups was: 22.80, 24.45 and 21.45 for the control, the GlcN-supplemented and the GlcNBu-supplemented groups, respectively. These values were not statistically significant. On day nine of the study, untreated water was provided and the mass of rat chow given daily was increased to 15 g, supplemented with an additional 1.0 g of solid treatment compound. On day 18, the animals were sacrificed by CO2 asphyxiation and their organs were inspected for damage.
SMILES,average weights and rates of weight gain and growth [1],average rates of weight gain and growth and body weights [1],"stimulation of weight gain and growth (overall, Experiment 1) [1]",rate of weight gain and growth compared to control animals [2],"mean density value of autoradiograms in the region of the epiphyseal growth plate (area under scan curve; black = 0, white = 255) (epiphyseal growth plate)","incorporation of radioisotope into sulfated glycosaminoglycans of proteoglycans of the epiphyseal growth plates, compared to control (epiphyseal growth plate)",concentrations of free glucosamine in the circulation after ingestion [3],effect on weight gain ([4]; nine days),histological examinations for signs of toxicity [5],"increase in weights compared to water controls ([4]; 20 mg/kg by gavage, by day 3)","average weight gain compared to the GlcN group (2000 mg/kg) ([4]; 20 mg/kg by gavage, margin became insignificant by day seven)","increase in weights compared to water controls ([4]; 200 mg/kg by gavage, by day 5)","average weight gain compared to the GlcN group (2000 mg/kg) ([4]; 200 mg/kg by gavage, significantly heavier by day 4)","dose of maximal stimulatory effect on weight gain and growth ([4]; gavage, nine days, doses 20, 200, 2000 mg/kg) [mg/kg]",increase in weight compared to the same amount of GlcN [6],"upper limit of feeding in terms of observed toxicity ([2]; oral feeding, rats)","weight gained over the water controls ([7]; 20 mg/mL in water for 8 days, then 1.0 g solid with 15 g chow, maintained after five days of treatment)",growth compared to the GlcN group ([7]; starting at about day 10)
"O=C[C@H](O)[C@@H](O)[C@H](O)[C@H](O)CO [Glc, D-glucose, reference compound]",essentially identical,no difference,failed to stimulate growth or weight gain,no significant change,127.1,(relatively small) stimulation of epiphyseal plate metabolism,,,,,,,,,,,,
"N[C@H]1C(O)O[C@H](CO)[C@@H](O)[C@@H]1O (stereo partly shown) [GlcN, glucosamine]",,,,decrease in the rate of weight gain and growth,,,only very low or not detectable concentrations,depression of weight gain,,,,,,,,,,
"CCCC(=O)N[C@H]1C(O)O[C@H](CO)[C@@H](O)[C@@H]1O (stereo partly drawn) [GlcNBu, N-butyryl-D-glucosamine]",significantly higher than those of the other groups,further increase in the rate and average body weights,stimulated the weight gain and growth,,143.2,less incorporation of the radioisotope,,"lesser stimulations, which were, nevertheless, higher than the control",failed to reveal any signs of toxicity,statistically significant from those of the water controls,significantly higher,statistically significant from those of the water controls,significantly higher,200,significantly greater increase in weight,no upper limit,consistent statistical differences in weight gained over the water controls,grew somewhat more rapidly
